Test results reported in article PMC7658347, “The cryo-EM structure of a γ-TuSC elucidates architecture and regulation of minimal microtubule nucleation systems” (Nature Communications, 2020).

Biological target: T1, C. albicans γ-TuSC (γ-tubulin small complex; Spc97, Spc98, γ-tubulin/Tub4) (Candida albicans, UniProt O93807)
T1 construct: full-length, codon-optimized genes, expressed in SF21 insect cells; heterotetramer; N-terminal 91 (Spc97) and 149 (Spc98) residues not resolved; with Spindle pole body component (Spc97); Spindle pole body component (Spc98)
T1 sequence (O93807 1-502): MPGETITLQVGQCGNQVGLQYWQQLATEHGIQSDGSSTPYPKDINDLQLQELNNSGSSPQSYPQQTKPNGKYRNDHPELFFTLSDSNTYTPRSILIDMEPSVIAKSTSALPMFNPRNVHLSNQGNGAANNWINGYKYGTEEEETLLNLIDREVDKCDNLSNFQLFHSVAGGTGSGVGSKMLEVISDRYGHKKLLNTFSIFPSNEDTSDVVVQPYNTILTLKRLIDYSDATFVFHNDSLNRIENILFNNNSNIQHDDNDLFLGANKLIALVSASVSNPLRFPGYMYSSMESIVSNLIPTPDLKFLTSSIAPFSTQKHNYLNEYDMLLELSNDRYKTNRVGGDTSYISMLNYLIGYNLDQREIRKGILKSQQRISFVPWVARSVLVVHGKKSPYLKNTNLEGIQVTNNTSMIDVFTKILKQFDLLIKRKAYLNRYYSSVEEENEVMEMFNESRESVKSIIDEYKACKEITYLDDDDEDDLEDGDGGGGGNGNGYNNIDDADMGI
T1 sequence (Q59PZ2 1-871 partner): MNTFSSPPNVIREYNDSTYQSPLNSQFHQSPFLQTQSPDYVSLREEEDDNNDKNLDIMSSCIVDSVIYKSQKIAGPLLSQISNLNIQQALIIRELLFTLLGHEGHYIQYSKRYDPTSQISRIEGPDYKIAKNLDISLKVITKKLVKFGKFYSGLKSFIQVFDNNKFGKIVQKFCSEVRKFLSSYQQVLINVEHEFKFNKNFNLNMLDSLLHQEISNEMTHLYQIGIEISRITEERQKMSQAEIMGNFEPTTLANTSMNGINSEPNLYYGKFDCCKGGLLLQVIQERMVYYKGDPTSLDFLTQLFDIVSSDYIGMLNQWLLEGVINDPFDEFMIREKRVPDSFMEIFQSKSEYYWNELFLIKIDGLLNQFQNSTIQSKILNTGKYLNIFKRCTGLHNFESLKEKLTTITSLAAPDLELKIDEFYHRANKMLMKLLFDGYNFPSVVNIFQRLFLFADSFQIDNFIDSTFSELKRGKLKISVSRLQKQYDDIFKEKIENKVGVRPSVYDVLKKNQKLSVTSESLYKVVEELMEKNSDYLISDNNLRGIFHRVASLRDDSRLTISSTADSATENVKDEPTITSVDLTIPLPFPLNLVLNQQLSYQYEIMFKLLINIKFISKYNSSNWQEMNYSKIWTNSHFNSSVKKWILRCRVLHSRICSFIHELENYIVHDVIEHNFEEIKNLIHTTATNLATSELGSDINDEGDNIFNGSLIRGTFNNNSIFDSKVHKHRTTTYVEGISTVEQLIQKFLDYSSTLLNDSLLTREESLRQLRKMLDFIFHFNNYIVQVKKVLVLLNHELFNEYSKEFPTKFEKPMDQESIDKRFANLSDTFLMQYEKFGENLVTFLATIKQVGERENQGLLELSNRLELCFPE
T1 sequence (A0A1D8PS42 1-785 partner): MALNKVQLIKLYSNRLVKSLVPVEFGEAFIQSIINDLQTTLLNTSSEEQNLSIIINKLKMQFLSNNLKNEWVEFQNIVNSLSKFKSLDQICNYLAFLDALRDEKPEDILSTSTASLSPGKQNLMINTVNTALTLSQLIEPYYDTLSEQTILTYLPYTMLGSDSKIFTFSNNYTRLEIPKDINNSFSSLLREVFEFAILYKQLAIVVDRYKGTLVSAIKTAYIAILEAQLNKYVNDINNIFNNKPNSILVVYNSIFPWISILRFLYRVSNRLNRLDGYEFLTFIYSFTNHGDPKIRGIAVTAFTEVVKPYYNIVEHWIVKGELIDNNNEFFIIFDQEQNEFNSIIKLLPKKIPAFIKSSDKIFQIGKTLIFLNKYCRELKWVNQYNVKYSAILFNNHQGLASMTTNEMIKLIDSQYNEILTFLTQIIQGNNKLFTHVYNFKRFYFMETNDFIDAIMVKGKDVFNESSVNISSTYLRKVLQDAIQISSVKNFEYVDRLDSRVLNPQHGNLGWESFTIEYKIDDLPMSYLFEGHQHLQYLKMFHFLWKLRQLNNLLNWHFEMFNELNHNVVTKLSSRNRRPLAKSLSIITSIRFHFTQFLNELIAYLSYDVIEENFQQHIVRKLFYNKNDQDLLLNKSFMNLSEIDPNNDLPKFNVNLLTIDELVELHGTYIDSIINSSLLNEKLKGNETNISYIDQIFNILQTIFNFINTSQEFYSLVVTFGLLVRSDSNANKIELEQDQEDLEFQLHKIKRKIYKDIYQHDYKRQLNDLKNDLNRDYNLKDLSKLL
Experiment: cryo-EM structure ([…] Å)
Conditions: co-purified nucleotide, none added; nucleotide-binding pocket of γ-tubulin; assigned from density lacking γ-phosphate; Table 1 lists 0 ligands in the refined model

Compound: Nc1nc2c(ncn2[C@@H]2O[C@H](COP(=O)(O)OP(=O)(O)O)[C@@H](O)[C@H]2O)c(=O)[nH]1 [GDP]
- cryo-EM structure (3.6 Å): Our cryo-EM density of the C. albicans γ-TuSC indicates binding of GDP, rather than GTP
